# Several values for one entry are separate records, joined by “and”; a condition that tells them apart may be missing. Equal values may be shown once. Entries after “also recorded” stand apart in the source; their conditions may differ. Where a name gives a salt, the structure may show the parent alone.
# Experiments:
# [1] = Chelation with Al3+ ion in vitro (precipitation with AlCl3); format: physicochemical; settings: for Precipitation (%): drug 50 μM, pH 6.5, 30 min, 24 °C
# Description: AlCl3 was also dissolved in the same buffer at a concentration of 50 μM, 100 μM, 200 μM, 1 mM, or 2 mM, and each drug solution and AlCl3 solution were mixed at an equal volume. The mixture solution was shaken, stood for 30 min at 24 °C and centrifuged. The supernatant was filtrated through a syringe filter with 0.22 μm of pore size (Millipore, Tokyo, Japan).
# [2] = individual rabbits
# Text: (§1) Rabbits were supplied solid food for rabbits (CR-3M, CLEA Japan, Inc., Tokyo, Japan), and the average amount of CR-3M that each rabbit ingested was 100–110 g/day. CR-3M contains various vitamins and cationic metals including Ca, Mg, and iron (Fe^2+, Fe^3+) in addition to various energy sources. […] Coprophagy was not prevented in control rabbits.
# To estimate gastric contents, gastric Ca and Mg concentrations, and gastric pH in the untreated control (not fasted), control (fasted) and EDTA-treated rabbits, rabbits were sacrificed by intraperitoneal injection of an excess amount of pentobarbital. Rabbits were opened along the midline and their stomach was isolated. The stomach contents were taken out into a test tube and weighed, and the suspension was centrifuged at 3000 rpm for 10 min to measure the amount of gastric water. Then, concentrations of the Ca and Mg in the supernatant were measured by using L type Wako Ca (Fujifilm, Tokyo, Japan) and L type Wako Mg N (Fujifilm, Tokyo, Japan), respectively, and an automated clinical chemistry analyzer, TBA-nx360 (Canon, Tokyo, Japan). The pH of gastric water was also determined.
# [3] = Mucosal damage after EDTA treatment: oral absorption of FD-4; settings: >10 mL of 1 mg/mL EDTA 2Na orally, rabbits
# Description: FD-4 was administered orally by stomach intubation at 10 mg/kg and 10 mL water. Blood (100 μL each) was taken periodically at 0, 0.5, 1, 2, and 4 h after administration from the ear vein. […] The concentrations of FD-4 in plasma were determined by Spectro fluorophotometer RF-1500 (Shimadzu Co., Ltd., Kyoto, Japan) using an excitation and emission wavelength of 480 nm and 520 nm, respectively.
# [4] = rats; cited from earlier work
# in vivo [5] = settings: for AUC(0-t) / AUC(0-inf) / bioavailability / Cmax / Tmax: male, albino, rabbit, in vivo, po, 150 mg/kg, TC 150 mg/kg orally; for AUC(0-t): AUC0–6h; for AUC(0-inf): AUC0–∞; for bioavailability: Bioavailability (absolute oral)
# Description: as §1
# After administration orally by stomach intubation, blood samples (100 μL each) were taken periodically from the ear vein at 0.25, 0.5, 1, 2, 4 and 6 h. Blood samples were centrifuged at 3000× g for 10 min to obtain plasma samples.
# [6] = control rabbits
# in vivo [7] = settings: male, albino, rabbit, iv, 10 mg/kg
# [8] = cited from earlier work
# [9] = gastric water, EDTA-treated rabbits
compound,measurement,setting,value
"O=C([O-])CN(CCN(CC(=O)O)CC(=O)O)CC(=O)[O-].[Na+].[Na+] [EDTA 2Na, disodium ethylenediamine tetraacetic acid]",Effect of added EDTA 2Na on precipitation of CFX with AlCl3,"[1]; EDTA 2Na 4 mg/mL, 12 mM added to mixture solutions of CFX and AlCl3",completely inhibited
same,Gastric Contents (g),"[2]; EDTA-treated rabbits (free access to 1 mg/mL EDTA 2Na, 10 mL at 1 h before; coprophagy prevented)",(3) 13.1 (hair > pellets) g; also recorded: (1) 9.5 (hair > pellets) g; also recorded: (2) 7.8 (hair > pellets) g
same,Gastric pH,[2]; EDTA-treated rabbits,1.3 and 1.6 and 1.2
same,Water Contents,[2]; EDTA-treated rabbits,10.5 mL and 6.7 mL and 4.8 mL
same,Concentrations Ca,[2]; [9],1.9 mg/dL and 2.6 mg/dL and 1.3 mg/dL
same,Concentrations Mg,[2]; [9],1.9 mg/dL and 1.6 mg/dL
same,Mucosal damage after EDTA treatment,[3],without causing mucosal damage
same,Lowest effective dose to increase the permeability of dichloromethylene bisphosphonate,[4],100 mg/kg
same,"Minimal effective dose to increase membrane permeability to 4-amino-1-hydroxybutylidene-1,1-bisphosphonate",[4],10 mg/kg
"CN(C)[C@@H]1C(O)=C(C(N)=O)C(=O)[C@@]2(O)C(O)=C3C(=O)c4c(O)cccc4[C@@](C)(O)[C@H]3C[C@@H]12 [TC, tetracycline hydrochloride]",Precipitation (%),[1]; AlCl3 25 μM,63.2 ± 21.3%
same,Precipitation (%),[1]; AlCl3 50 μM,84.0 ± 13.9%
same,Precipitation (%),[1]; AlCl3 100 μM,91.6 ± 7.3%
same,Precipitation (%),[1]; AlCl3 500 μM,96.2 ± 5.7%
same,Precipitation (%),[1]; AlCl3 1 mM,99.4 ± 1.19%
same,TC in plasma after oral administration,"in vivo [5]; at a lower dose than 30 mg/kg, rabbits",not detected
same,AUC(0-t),in vivo [5]; EDTA-treated rabbits,4680 ± 930 ng·h/mL
same,AUC(0-t),in vivo [5]; control rabbits,2540 ± 910 ng·h/mL
same,AUC(0-inf),in vivo [5]; EDTA-treated rabbits,6490 ± 1080 ng·h/mL
same,AUC(0-inf),in vivo [5]; control rabbits,3390 ± 1260 ng·h/mL
same,bioavailability,in vivo [5]; EDTA-treated rabbits,4.9 ± 0.81%
same,bioavailability,in vivo [5]; control rabbits,2.56 ± 0.95%
same,Cmax,in vivo [5]; EDTA-treated rabbits,1120 ± 280 ng/mL
same,Cmax,in vivo [5]; control rabbits,730 ± 220 ng/mL
same,Tmax,in vivo [5]; EDTA-treated rabbits,2 h
same,Tmax,in vivo [5]; control rabbits,1.67 ± 0.58 h
same,β,"[6]; […] iv infusion, LFX 20, CFX 30, TC 10 mg/kg",0.28 ± 0.10 h⁻¹
same,"Total plasma clearance (CLtotal), Doseiv/AUC0–∞",[6]; iv infusion,18.83 mL/min/kg
same,AUC(0-t),in vivo [7],7570 ± 1380 ng·h/mL
same,Oral bioavailabilities in humans,"[8]; LFX 200–750 mg, CFX 200–1000 mg, TC 250 mg, ref references listed in the discussion section",77–88% (250 mg)
same,Absolute oral bioavailability,"[8]; humans, dose of 250 mg",77–88%

# From paper PMC10301896 (Pharmaceutics, 2023)
